Results: ChEMBL document CHEMBL4024791, “Identification of Morpholino-2H-pyrido[3,2-b][1,4]oxazin-3(4H)-ones as Nonsteroidal Mineralocorticoid Antagonists” (J Med Chem, 2018)
In brackets after ≈: the same amount, converted by molar mass.

Columns and labels:
[1] = molecular target: T1, Mineralocorticoid receptor (Homo sapiens, UniProt P08235)
T1 sequence (P08235 whole entry): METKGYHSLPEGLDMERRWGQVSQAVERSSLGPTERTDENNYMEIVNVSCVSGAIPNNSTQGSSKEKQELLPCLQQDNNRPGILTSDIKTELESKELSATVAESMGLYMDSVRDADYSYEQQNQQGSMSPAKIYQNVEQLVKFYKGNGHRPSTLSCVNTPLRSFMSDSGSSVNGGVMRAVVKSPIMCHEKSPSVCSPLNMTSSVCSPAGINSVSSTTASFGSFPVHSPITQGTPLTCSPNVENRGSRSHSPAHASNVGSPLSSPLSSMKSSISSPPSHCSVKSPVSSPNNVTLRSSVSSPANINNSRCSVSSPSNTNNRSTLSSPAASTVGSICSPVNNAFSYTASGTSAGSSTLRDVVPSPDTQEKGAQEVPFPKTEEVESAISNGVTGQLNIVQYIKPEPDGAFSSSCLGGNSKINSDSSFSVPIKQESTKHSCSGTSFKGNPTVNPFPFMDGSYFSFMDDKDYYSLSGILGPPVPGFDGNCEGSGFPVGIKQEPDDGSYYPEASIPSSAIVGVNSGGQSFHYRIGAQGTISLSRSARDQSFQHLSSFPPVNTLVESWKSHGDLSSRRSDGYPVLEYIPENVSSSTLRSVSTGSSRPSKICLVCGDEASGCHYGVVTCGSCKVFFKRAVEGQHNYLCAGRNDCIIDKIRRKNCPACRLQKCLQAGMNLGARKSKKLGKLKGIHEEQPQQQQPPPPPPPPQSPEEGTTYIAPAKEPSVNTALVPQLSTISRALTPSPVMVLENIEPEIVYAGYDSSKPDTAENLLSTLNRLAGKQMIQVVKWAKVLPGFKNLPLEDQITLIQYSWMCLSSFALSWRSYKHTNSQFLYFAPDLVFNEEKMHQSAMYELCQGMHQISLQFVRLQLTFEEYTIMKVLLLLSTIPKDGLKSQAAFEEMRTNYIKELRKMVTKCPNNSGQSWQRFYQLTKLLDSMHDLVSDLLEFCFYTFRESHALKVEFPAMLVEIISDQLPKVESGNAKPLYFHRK
Description: Displacement of [3H]-aldosterone from human GST-tagged MR ligand binding domain after 4 hrs by liquid scintillation counting

[2] = Apparent permeability in RRCK cells; format: ADME, cell-based, Canis lupus familiaris, MDCKII-LE; settings: dog, MDCK
[3] = molecular target: T2, Estrogen receptor (Homo sapiens, UniProt P03372); test: Binding affinity to ERalpha (unknown origin)
T2 sequence (P03372 whole entry): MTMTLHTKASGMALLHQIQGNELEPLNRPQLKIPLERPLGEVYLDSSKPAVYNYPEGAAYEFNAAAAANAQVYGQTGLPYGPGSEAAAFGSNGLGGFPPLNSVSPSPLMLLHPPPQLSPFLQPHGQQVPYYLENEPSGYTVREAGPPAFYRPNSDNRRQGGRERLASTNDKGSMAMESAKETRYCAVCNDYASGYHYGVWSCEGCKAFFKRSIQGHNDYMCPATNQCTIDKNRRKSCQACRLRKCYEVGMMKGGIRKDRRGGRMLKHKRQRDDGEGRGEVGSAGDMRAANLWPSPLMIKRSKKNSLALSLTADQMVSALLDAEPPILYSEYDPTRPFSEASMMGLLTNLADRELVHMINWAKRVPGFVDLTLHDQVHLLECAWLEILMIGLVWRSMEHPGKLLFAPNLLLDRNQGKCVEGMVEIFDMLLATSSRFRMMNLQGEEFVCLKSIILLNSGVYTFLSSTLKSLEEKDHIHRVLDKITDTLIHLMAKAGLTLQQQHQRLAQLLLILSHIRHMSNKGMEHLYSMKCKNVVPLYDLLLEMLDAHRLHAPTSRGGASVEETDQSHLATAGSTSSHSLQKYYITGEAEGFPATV

[4] = molecular target: T3, Glucocorticoid receptor (Homo sapiens, UniProt P04150); test: Displacement of [3H]-dexamethasone from recombinant human GST-tagged GR ligand binding domain after 4 hrs by liquid scintillation counting
T3 sequence (P04150 whole entry): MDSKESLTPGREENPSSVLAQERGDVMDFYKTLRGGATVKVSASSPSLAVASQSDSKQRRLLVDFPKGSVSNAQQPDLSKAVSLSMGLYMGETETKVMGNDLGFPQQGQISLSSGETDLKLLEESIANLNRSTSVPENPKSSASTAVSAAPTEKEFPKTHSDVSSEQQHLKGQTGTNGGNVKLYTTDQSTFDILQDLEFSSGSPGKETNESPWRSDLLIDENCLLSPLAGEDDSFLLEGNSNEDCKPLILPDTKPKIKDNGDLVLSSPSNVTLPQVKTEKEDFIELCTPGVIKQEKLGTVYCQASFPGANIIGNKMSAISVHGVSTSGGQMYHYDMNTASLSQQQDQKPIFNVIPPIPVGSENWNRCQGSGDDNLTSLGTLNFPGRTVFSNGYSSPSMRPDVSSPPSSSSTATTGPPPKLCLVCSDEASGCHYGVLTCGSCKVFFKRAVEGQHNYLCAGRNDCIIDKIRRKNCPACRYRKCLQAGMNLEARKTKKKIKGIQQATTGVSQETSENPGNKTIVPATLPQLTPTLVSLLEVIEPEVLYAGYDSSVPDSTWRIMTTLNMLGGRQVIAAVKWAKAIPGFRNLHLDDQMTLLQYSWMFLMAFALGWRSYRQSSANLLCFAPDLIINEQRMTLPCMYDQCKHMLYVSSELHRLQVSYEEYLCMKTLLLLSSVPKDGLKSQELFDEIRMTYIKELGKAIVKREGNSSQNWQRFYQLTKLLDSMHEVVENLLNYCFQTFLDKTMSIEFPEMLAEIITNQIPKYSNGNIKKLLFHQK

[5] = Thermodynamic solubility of the compound in phosphate buffered saline at pH 6.5; format: physicochemical; settings: read-out: Therm_solubility
[6] = Apparent permeability across apical to basolateral side in RRCK cells; format: ADME, cell-based, Canis lupus familiaris, MDCKII-LE; settings: dog, MDCK

SMILES: O=C1COc2ccc(N3CCOC[C@H]3c3ccccc3)cc2N1
- IC50 [1]: 0.401 µM
- Papp [2]: 29.3 ×10⁻⁶ cm/s

SMILES: C[C@@H]1CN(c2ccc3c(n2)NC(=O)CO3)[C@H](c2ccccc2)CO1
- IC50 [3]: > 10 µM
- IC50 [4]: > 10 µM
- solubility thermodynamic [5]: 17 µM (≈ 5.53 µg/mL)
- Papp A→B [6]: 45.9 ×10⁻⁶ cm/s
